Patent US20240300968A1, “6-SUBSTITUTED NAPHTHALENE-1,3-DISULFONIC ACID DERIVATIVES AS MODULATORS OF THE EXTRACELLULAR NICOTINAMIDE PHOSPHORIBOSYL TRANSFERASE (ENAMPT) FOR THE TREATMENT OF E.G. DIABETES” (The University of Manchester, priority 2021, published 2024)
Where two headings read alike, the source gives them in different places.

Experiments:
NAMPT [1] = molecular target: T1, NAMPT (Homo sapiens (Human), UniProt P43490); experiment: Tm shift assay (thermal melting, SYPRO Orange); assay type: binding; settings: read-out: NAMPT Tm shift
THP-1 cells = experiment: THP-1 WST-1 assay; assay type: cell-based; settings: Homo sapiens, 1 μM test compound, 48 hrs, average of three replicates
Method: THP-1 cells were plated at […] (400,000 cells per mL) in a final volume of 150 μL media (RPMI-1640 containing 10% v/v FBS) containing 1 μM test compound. Samples were incubated for 48 hrs at which point 15 μL WST-1 solution (Sigma-Aldrich) was added. Light was excluded and the samples incubated for a further 2 hrs. Absorbance of wells were read at 450 nm and 630 nm using a Hidex Sense plate reader. Metabolic inhibition was determined by the absorbance at 450 nm and transformed to % control using Excel. Data reported is an average of three replicates.

NAMPT [2] = molecular target: T1, NAMPT; experiment: Native mass spectrometry of NAMPT incubated with compound; assay type: binding; settings: NAMPT 5 μmol/l with compound 5 μmol/l, 12 hours; m/z 6125-6500 region
[3] = compound 100 μM, shift vs protein without ligand, mean of 3 independent repeats

T1 sequence (P43490 whole entry, species assumed): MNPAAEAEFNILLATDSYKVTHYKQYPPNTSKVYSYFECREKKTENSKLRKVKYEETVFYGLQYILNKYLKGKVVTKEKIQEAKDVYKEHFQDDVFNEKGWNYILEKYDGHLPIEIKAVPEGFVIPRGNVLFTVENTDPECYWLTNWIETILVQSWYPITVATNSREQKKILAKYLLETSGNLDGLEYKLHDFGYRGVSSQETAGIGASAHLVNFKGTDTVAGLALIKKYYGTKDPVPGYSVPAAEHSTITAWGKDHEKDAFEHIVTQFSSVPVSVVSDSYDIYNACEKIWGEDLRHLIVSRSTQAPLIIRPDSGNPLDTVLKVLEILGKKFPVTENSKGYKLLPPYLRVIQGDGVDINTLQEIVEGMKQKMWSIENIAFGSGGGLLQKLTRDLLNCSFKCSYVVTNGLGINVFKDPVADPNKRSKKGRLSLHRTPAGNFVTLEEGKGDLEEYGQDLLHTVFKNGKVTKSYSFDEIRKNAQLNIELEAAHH

| SMILES | ΔTm at 100 µM (NAMPT [1]; [3]) | inhibition at 1 µM (THP-1 cells) | complex between NAMPT and compound in native mass spectrum (NAMPT [2]) | ΔTm at 100 µM (NAMPT [1]) |
| --- | --- | --- | --- | --- |
| O=C(NCc1cc(-c2ccc3cc(S(=O)(=O)O)cc(S(=O)(=O)O)c3c2)ccc1F)Nc1ccc(S(=O)(=O)N2CCCCC2)cc1 [Example 6, 6-(4-fluoro-3-((3-(4-(piperidin-1-ylsulfonyl)phenyl)ureido)methyl)phenyl)-4-(trioxidaneylthio) naphthalene-2-sulfonic acid] | 9.6 °C | 1% |  |  |
| O=C(NCc1ccc(F)c(-c2ccc3cc(S(=O)(=O)O)cc(S(=O)(=O)O)c3c2)c1)Nc1ccc(S(=O)(=O)N2CCCCC2)cc1 [Example 1, 6-(2-fluoro-5-((3-(4-(piperidin-1-ylsulfonyl)phenyl)ureido)methyl)phenyl)-4-(trioxidaneylthio)naphthalene-2-sulfonic acid] | 10.3 °C | < 0% |  |  |
| COc1ccc(CNC(=O)Nc2ccc(S(=O)(=O)N3CCCCC3)cc2)cc1-c1ccc2cc(S(=O)(=O)O)cc(S(=O)(=O)O)c2c1 [Example 7] | 7.5 °C | < 0% |  |  |
| O=C(NC[C@@H]1CCOC1)c1ccc(NC(=O)N2Cc3ccc(-c4ccc5cc(S(=O)(=O)O)cc(SOOO)c5c4)cc3C2)cc1 [Example 10, (S)-6-(2-((4-(((Tetrahydrofuran-3-yl)methyl)carbamoyl)phenyl)carbamoyl)isoindolin-5-yl)-4-(trioxidaneylthio)naphthalene-2-sulfonic acid] | 20.5 °C |  |  |  |
| O=C(NCc1cccc(-c2ccc3cc(S(=O)(=O)O)cc(S(=O)(=O)O)c3c2)c1)Nc1ccc(S(=O)(=O)N2CCCCC2)cc1 [Example 5] | 10.8 °C | < 0% |  |  |
| O=C(/C=C/c1cccnc1)NCCCCC1CCN(C(=O)c2ccccc2)CC1 [FK866, (E)-N-[4-(1-benzoylpiperidin-4-yl)butyl]-3-pyridin-3-ylprop-2-enamide, reference compound] |  | 79.6% | complex dissociates | 2.6 °C |
| O=C(NCc1ccc(F)c(-c2ccc3cc(S(=O)(=O)O)cc(S(=O)(=O)O)c3c2)c1)Nc1ccc(S(=O)(=O)N2CC3CCC(C2)O3)cc1 [Example 8, 6-(5-((3-(4-((8-oxa-3-azabicyclo[3.2.1]octan-3-yl)sulfonyl)phenyl)ureido)methyl)-2-fluorophenyl)-4-(trioxidaneylthio)naphthalene-2-sulfonic acid] | 9.7 °C | < 0% |  |  |
| O=C(/C=C/c1ccc(F)c(-c2ccc3cc(S(=O)(=O)O)cc(S(=O)(=O)O)c3c2)c1)NCCCCC1CCN(C(=O)c2ccccc2)CC1 [Example 2, (E)-6-(5-(3-((4-(1-benzoylpiperidin-4-yl)butyl)amino)-3-oxoprop-1-en-1-yl)-2-fluorophenyl)-4-(trioxidaneylthio)naphthalene-2-sulfonic acid] | 9.1 °C | 70.4% |  |  |
| O=S(=O)(O)c1cc(S(=O)(=O)O)c2cc(-c3cccc(-c4cn(CCCCCCOc5ccccc5-c5ccccc5)nn4)c3)ccc2c1 [Example 4] |  | < 0% |  |  |
| O=C(NCc1ccc(F)c(-c2ccc3cc(S(=O)(=O)O)cc(S(=O)(=O)O)c3c2)c1)Nc1ccc(S(=O)(=O)c2ccccc2)cc1 [Example 3, 6-(2-fluoro-5-((3-(4-(phenylsulfonyl)phenyl)ureido)methyl)phenyl)-4-(trioxidaneylthio) naphthalene-2-sulfonic acid] | 12.2 °C | < 0% |  |  |
| O=C(NCc1ccc(S(=O)(=O)N2CCCCC2)cc1)c1cc2cc(-c3ccc4cc(S(=O)(=O)O)cc(S(=O)(=O)O)c4c3)ccc2[nH]1 [Example 9] | 4.2 °C | < 0% |  |  |
